This is an account of results in patent US6235753A, “Inhibitors of the production of S-CD23 and the secretion of TNF” (priority 1996, dated 2001).

The inhibition is the percentage by which the read-out fell short of the control. What is called IC50 is the concentration at which inhibition is half-maximal.

One experiment has as its system TNFα. Put plainly: Inhibition of release of TNFα from human monocytes stimulated by LPS (TNF processing inhibition). It is filed as cell-based. The following applies: Monocyte, read-out: TNF processing inhibition.
The target of experiment [1] is T1, human recombinant collagenase (Homo sapiens, UniProt P03956).
T1 construct: made in house; host or cells: E. coli
T1 sequence (P03956 100-469): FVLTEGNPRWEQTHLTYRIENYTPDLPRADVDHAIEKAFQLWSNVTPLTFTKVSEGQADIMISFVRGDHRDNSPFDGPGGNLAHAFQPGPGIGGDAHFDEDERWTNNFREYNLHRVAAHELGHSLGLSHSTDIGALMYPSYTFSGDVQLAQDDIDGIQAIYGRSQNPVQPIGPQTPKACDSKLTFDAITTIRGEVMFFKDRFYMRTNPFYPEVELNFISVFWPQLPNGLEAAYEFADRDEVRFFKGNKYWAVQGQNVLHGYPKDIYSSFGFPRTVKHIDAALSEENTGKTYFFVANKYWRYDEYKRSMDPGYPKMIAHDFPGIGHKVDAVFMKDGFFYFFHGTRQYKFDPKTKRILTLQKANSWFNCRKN
As to the kind of experiment: Collagenase Inhibition Assay. Format: biochemical.
Source text: Collagenase Inhibition Assay:
The collagen was acetylated ^3 H type 1 bovine collagen prepared by the method of Cawston and Murphy (methods in Enzymology 80, 711,1981) The samples were centrifuged to sediment undigested collagen and an aliquot of the radioactive supernatant removed for assay on a scintillation counter as a measure of hydrolysis.

In the next experiment the target is T2, CD23 proteinase (Homo sapiens, UniProt O14672).
T2 construct: Plasma membranes from RPMI 8866 cells, a human Epstein-Barr virus transformed B-cell line; endogenous in cells; host or cells: RPMI 8866 (human EBV-transformed B-cell line), enriched plasma membranes
T2 sequence (O14672 214-748): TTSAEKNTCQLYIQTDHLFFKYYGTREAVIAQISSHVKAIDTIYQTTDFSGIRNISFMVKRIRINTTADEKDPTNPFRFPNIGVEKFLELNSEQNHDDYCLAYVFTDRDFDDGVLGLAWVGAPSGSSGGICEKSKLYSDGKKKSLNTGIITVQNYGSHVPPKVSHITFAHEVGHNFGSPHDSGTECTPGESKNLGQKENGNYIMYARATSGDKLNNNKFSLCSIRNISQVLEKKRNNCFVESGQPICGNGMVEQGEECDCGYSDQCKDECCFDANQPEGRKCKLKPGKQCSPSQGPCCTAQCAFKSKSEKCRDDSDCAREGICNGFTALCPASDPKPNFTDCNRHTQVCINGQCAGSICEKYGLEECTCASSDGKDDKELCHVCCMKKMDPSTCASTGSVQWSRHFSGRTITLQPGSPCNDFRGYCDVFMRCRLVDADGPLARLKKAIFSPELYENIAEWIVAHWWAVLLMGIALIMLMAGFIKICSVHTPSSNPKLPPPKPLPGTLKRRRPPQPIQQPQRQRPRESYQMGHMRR
As to the kind of experiment: RPMI 8866 cell membrane CD23 cleavage activity assay (CD23 proteinase inhibition). It is filed as biochemical. The following applies: RPMI 8866 cell membranes.

Read-outs that look alike come from different tables or passages of the source.

Procedure for CD23 proteinase: Procedure 1: The ability of test compounds to inhibit the release of soluble CD23 was investigated by use of the following procedure.
Cells resuspended in homogenization buffer (20 mM HEPES pH 7.4, 150 mM NaCl, 1.5 mM MgCl2, 1 mM DTI) are broken by N2 cavitation in a Parr bomb and the plasma membrane fraction mixed with other membranes is recovered by centrifugation at 10,000×g. The light pellet is resuspended in 0.2 M potassium phosphate, pH 7.2 using 2 ml per 1-3 g wet cells and the nuclear pellet is discarded. […] The phases are separated by brief centrifugation at 1000×g and the PEG (upper) phase is collected, diluted 3-5 fold with 20 mM potassium phosphate buffer pH 7.4, and centrifuged at 100,000×g to recover membranes in that phase. The pellet is resuspended in phosphate-buffered saline and consists of 3-4 fold enriched plasma membranes as well as some other cell membranes (e.g. lysosomes, Golgi). The membranes are aliquoted and stored at -80° C.
The amount of soluble CD23 made by 0.5 ug membrane protein in a total volume of 50 ul phosphate-buffered saline is measured by EIA and compared to the amount made in the presence of various concentrations of inhibitors. Inhibitors are prepared in solutions of water or dimethylsulfoxide (DMSO) and the final DMSO concentration is not more than 2%.
Procedure for TNFα: Procedure 3: The ability of test compounds to inhibit TNF release was investigated using the following procedure. Assay for inhibition of release of TNFα from human monocytes stimulated by lipopolysaccharide (LPS) endotoxin. […] The cell suspension is aliquoted in 24 well plates, 1 ml per well. Compounds to be tested are dissolved in neat dimethyl sulfoxide (DMSO) and added to culture with the final DMSO concentration at 0.1%. Compounds are added to cells in triplicate wells. TNFα release is stimulated by addition of LPS to the cells at a final concentration of 200 ng/ml. Appropriate control cultures are set up in triplicates also. The plates are incubated for 18-20 hrs at 37° C., 5% CO2, then centrifuged at 1000×g for 5 min. A specific ELISA for human TNFα (SmithKline Beecham) is used to measure TNF levels in the cell-free culture supernatants.

As to `CNC(=O)[C@H](Cc1ccccc1)NC(=O)[C@H](CC(C)C)[C@H](CSc1cccs1)C(=O)NO` [Comparative Example, reference compound], in the experiment on TNFα (Homo sapiens), the inhibition at 1 µM worked out at 76.4 ± 0.9%.

As for `CNC(=O)[C@@H](NC(=O)[C@H](Cc1ccc2ccccc2c1)[C@H](O)C(=O)NO)C(C)(C)C` [Example 1, N'-[3S-Hydroxy-4-(N-hydroxyamino)-2R-(2-naphthylmethyl)succinyl]-S-tert-leucine-N-methylamide], in experiment [1], the IC50 was > 10 µM. The inhibition at 1 µM at CD23 proteinase (at 1 uM) was 88%.

Take `CNC(=O)[C@H](Cc1ccccc1)NC(=O)[C@H](Cc1ccc2ccccc2c1)[C@H](O)C(=O)NO` [Example 2, N'-[3S-Hydroxy-4-(N-hydroxyamino)-2R-(2-naphthylmethyl)succinyl]-S-phenylalanine-N-methylamide]: the 50% inhibitory concentration (IC50) in experiment [1] (37° C., 18 h, acetylated 3H type 1 bovine collagen, read-out: Collagenase inhibition IC50) stood at 8.6 µM. In the experiment on TNFα (at 1 uM, human monocytes, LPS 200 ng/ml, 18-20 hrs), the inhibition at 1 µM stood at 45%. The same molecule yielded an inhibition at 2 µM at CD23 proteinase (at 2 uM) of 90%.
